These compounds were tested against T1, TEC (Homo sapiens, UniProt P42680) (assay: Inhibition of a panel of kinases (in vitro HotSpot kinase assay, 33P-ATP, 1 μM ATP)). Conditions: HotSpot kinase assay, 1 μM ATP.
T1 sequence (P42680 1-631): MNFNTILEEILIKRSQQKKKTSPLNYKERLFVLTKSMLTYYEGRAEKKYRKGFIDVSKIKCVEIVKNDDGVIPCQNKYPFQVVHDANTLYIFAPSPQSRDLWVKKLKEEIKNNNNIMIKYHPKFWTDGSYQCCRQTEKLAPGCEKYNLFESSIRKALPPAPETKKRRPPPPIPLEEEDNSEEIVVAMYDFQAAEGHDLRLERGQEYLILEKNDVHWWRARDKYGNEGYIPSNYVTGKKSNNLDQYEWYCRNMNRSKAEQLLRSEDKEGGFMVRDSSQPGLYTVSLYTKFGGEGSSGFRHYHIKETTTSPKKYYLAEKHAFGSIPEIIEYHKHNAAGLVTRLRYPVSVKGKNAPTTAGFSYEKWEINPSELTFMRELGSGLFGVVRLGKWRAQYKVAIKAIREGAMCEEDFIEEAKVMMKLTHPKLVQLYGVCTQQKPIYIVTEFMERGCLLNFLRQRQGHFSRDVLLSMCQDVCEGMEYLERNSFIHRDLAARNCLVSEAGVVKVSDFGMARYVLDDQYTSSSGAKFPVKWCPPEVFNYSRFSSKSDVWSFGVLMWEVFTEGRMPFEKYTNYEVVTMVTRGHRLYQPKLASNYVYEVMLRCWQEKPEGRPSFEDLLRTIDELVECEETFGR
Format: biochemical
Description: Example 63: Inhibition of a Panel of Kinases The degree of inhibition of a panel of kinases is determined using the in vitro HotSpot kinase assay (purified enzymes, ^33P-ATP, an appropriate substrate and 1 μM ATP).

IC50	SMILES
9.68 µM	C=CC(=O)N1CC[C@@H](Nc2n[nH]c3nccc(-c4ccnc(NC(=O)c5noc(C(C)(C)C)n5)c4C)c23)C1 [Example 288, 5-tert-butyl-N-[3-methyl-4-(3-{[(3R)-1-(prop-2-enoyl)pyrrolidin-3-yl]amino}-1H-pyrazolo[3,4-b]pyridin-4-yl)pyridin-2-yl]-1,2,4-oxadiazole-3-carboxamide]

Same assay, conditions: ratio of TEC IC50 to Btk IC50 (selectivity)

TEC/Btk	SMILES
10	CC(C)(C)c1ccc(C(=O)Nc2cccc(-c3ccnc4[nH]nc(N[C@H]5CC[C@H](O)CC5)c34)c2)cc1 [Compound 13, 4-tert-butyl-N-[3-(3-{[(1r,4r)-4-hydroxycyclohexyl]amino}-1H-pyrazolo[3,4-b]pyridin-4-yl)phenyl]benzamide]
10	CC(C)(C)c1ccc(C(=O)Nc2ccc(-c3ccnc4[nH]nc(N[C@H]5CC[C@H](O)CC5)c34)cc2F)cc1 [Compound 15, 4-tert-butyl-N-[2-fluoro-4-(3-{[(1r,4r)-4-hydroxycyclohexyl]amino}-1H-pyrazolo[3,4-b]pyridin-4-yl)phenyl]benzamide]
10	Cc1c(NC(=O)c2ccc(C(C)(C)C)cc2)cccc1-c1ccnc2[nH]nc(N[C@H]3CC[C@H](O)CC3)c12 [Compound 14, 4-(tert-butyl)-N-(3-(3-(((1r,4r)-4-hydroxycyclohexyl)amino)-1H-pyrazolo[3,4-b]pyridin-4-yl)-2-methylphenyl)benzamide]

What follows are compounds tested against T2, Btk (Homo sapiens, UniProt Q06187) (assay: Btk in vitro inhibitory activity (one of Method A TR-FRET, Method B electrophoretic mobility shift, Method C radiometric filter binding)). Conditions: method is one of A, B or C, not stated which; read-out: IC50 values against Btk.
T2 construct: purified from insect cells as a full-length construct containing a N-terminal 6X-His tag; His6 (N); made in house; host or cells: insect cells (Method C)
Format: biochemical
Description: Example 62a: Btk In Vitro Inhibitory Activity (Method A)
Btk kinase activity is determined using a time-resolved fluorescence resonance energy transfer (TR-FRET) methodology. Measurements are performed in a reaction volume of 50 μL using 96-well assay plates. […] The reaction is quenched by the addition of 1.2 equivalents of EDTA (relative to divalent cation) in 25 μL of 1× Lance buffer (Perkin-Elmer). Streptavidin-APC (Perkin-Elmer) and Eu-labeled p-Tyr100 antibody (Perkin-Elmer) in 1× Lance buffer are added in a 25 μL volume to give final concentrations of 100 nM and 2.5 nM, respectively, and the mixture is allowed to incubate for one hour. The TR-FRET signal is measured on a multimode plate reader with an excitation wavelength (λEx) of 330 nm and detection wavelengths (λEm) of 615 and 665 nm. Activity is determined by the ratio of the fluorescence at 665 nm to that at 615 nm. For each compound, enzyme activity is measured at various concentrations of compound. Negative control reactions are performed in the absence of inhibitor in replicates of six, and two no-enzyme controls are used to determine baseline fluorescence levels. Inhibition constants, Ki(app), were obtained using the program BatchKi (Kuzmic et al. (2000), Anal. Biochem. 286:45-50). IC50s are obtained according to the equation:
IC50={Ki(app)/(1+[ATP]/Km^ATP)}+[E]total/2;
For all kinases, [ATP]=Km^ATP, [Btk]total=0.5 nM and [Lck]total=6 nM.
Example 62b: Btk In Vitro Inhibitory Activity (Method B)
Kinase activity is measured in vitro using electrophoretic mobility shift assay. The kinase reactions are assembled in a total volume of 25 μL in 384 well plates. The reactions comprise: BTK enzyme (1 nM, N-terminal His6-tagged, recombinant, full-length, human BTK purified from baculovirus Sf21 insect cell system, 293HEK, or other suitable source), inhibitor, ATP, fluorescently labeled peptide substrate (1 μM, FAM-GEEPLYWSFPAKKK-NH2) in a reaction buffer composed of 100 mM HEPES, pH7.5, 5 mM MgCl2 1 mM DTT, 0.1% bovine serum albumin, 0.01% Triton X-100, and 1% DMSO. The reaction is incubated and is quenched by the addition of termination buffer (100 mM HEPES, pH 7.5, 0.01% Triton X-100, 30 mM EDTA). The terminated reactions are analyzed using a 12 channel LabChip® 3000 microfluidic detection instrument (Caliper Life Sciences). The enzymatic phosphorylation of the peptide results in a change in net charge, enabling electrophoretic separation of product from substrate peptide. As substrate and product peptides are separated, two peaks of fluorescence are observed. Change in the relative fluorescence intensity of the substrate and product peaks is the parameter measured, reflecting enzyme activity. In the presence of an inhibitor, the ratio between product and substrate is altered: the signal of the product decreases, while the signal of the substrate increases.
Activity in each sample is determined as the product to sum ratio (PSR):P/(S+P), where P is the peak height of the product peptide and S is the peak height of the substrate peptide. For each compound, enzyme activity is measured at various concentrations (12 concentrations of compound spaced by 3× dilution intervals). Negative control samples (0%—inhibition in the absence of inhibitor) and positive control samples (100%—inhibition, in the presence of 20 mM EDTA) are assembled in replicates of four and are used to calculate %—inhibition values for each inhibitor at each concentration. Percent inhibition (Pinh) is determined using following equation:
Pinh=(PSR0%−PSRinh)/(PSR0%−PSR100%)*100, where PSRinh is the product sum ratio in the presence of inhibitor, PSR0% is the average product sum ration in the absence of inhibitor and PSR100% is the average product sum ratio in 100%—inhibition control samples.
The IC50 values of inhibitors are determined by 4 parameter sigmoidal dose-response model fitting of the inhibition curves (Pinh versus inhibitor concentration) using XLfit 4 software. […]

T2 sequence (Q06187 whole entry): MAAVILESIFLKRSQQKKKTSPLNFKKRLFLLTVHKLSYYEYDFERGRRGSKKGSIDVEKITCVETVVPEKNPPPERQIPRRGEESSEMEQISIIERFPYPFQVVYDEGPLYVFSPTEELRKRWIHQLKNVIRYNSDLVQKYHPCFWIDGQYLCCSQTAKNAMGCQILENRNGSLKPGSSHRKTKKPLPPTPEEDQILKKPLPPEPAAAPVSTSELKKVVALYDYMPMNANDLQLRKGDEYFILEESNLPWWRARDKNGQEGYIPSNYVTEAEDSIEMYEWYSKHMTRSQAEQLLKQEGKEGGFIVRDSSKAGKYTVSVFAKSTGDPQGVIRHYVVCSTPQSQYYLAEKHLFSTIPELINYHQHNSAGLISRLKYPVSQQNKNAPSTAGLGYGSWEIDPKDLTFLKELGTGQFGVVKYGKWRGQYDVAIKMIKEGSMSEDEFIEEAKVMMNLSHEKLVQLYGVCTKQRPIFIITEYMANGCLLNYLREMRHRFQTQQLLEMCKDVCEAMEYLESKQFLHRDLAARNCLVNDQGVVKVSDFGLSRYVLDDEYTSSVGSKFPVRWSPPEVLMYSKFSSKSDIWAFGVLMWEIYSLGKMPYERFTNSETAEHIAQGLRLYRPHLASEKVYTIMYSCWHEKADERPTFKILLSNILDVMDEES

IC50	SMILES
< 10 nM	CC(C)(C)c1nc(C(=O)NCc2ccc(-c3ccnc4[nH]nc(NC5CCNC5)c34)cc2F)no1 (stereo in doubt) [Example 50]
< 10 nM	C=CC(=O)N1CC[C@@H](Nc2n[nH]c3nccc(-c4ccc(C5(NC(=O)c6noc(C(C)(C)C)n6)CC5)cc4)c23)C1 [Example 4, 5-tert-butyl-N-{1-[4-(3-{[(3R)-1-(prop-2-enoyl)pyrrolidin-3-yl]amino}-1H-pyrazolo[3,4-b]pyridin-4-yl)phenyl]cyclopropyl}-1,2,4-oxadiazole-3-carboxamide]
< 10 nM	CC#CC(=O)N1CC[C@@H](Nc2n[nH]c3nccc(-c4ccc(CNC(=O)c5ccc(C(C)(C)C)cc5)c(F)c4)c23)C1 [Example 7, N-{[4-(3-{[(3R)-1-(but-2-ynoyl)pyrrolidin-3-yl]amino}-1H-pyrazolo[3,4-b]pyridin-4-yl)-2-fluorophenyl]methyl}-4-tert-butylbenzamide]
< 10 nM	C=CC(=O)N1CC[C@@H](Nc2n[nH]c3nccc(-c4ccc(CNC(=O)c5ccc(C)cc5)c(F)c4)c23)C1 [Example 34, N-{[2-fluoro-4-(3-{[(3R)-1-(prop-2-enoyl)pyrrolidin-3-yl]amino}-1H-pyrazolo[3,4-b]pyridin-4-yl)phenyl]methyl}-4-methylbenzamide]
< 10 nM	C=CC(=O)N1CC[C@@H](Nc2n[nH]c3nccc(-c4ccc(CNC(=O)c5ccccc5)c(F)c4)c23)C1 [Example 33, N-{[2-fluoro-4-(3-{[(3R)-1-(prop-2-enoyl)pyrrolidin-3-yl]amino}-1H-pyrazolo[3,4-b]pyridin-4-yl)phenyl]methyl}benzamide]
< 10 nM	C=CC(=O)N1CC[C@@H](Nc2n[nH]c3nccc(-c4cccc(-n5ccc6cc(C7CC7)cc(F)c6c5=O)c4CO)c23)C1 [Example 18, 6-cyclopropyl-8-fluoro-2-[2-(hydroxymethyl)-3-(3-{[(3R)-1-(prop-2-enoyl)pyrrolidin-3-yl]amino}-1H-pyrazolo[3,4-b]pyridin-4-yl)phenyl]-1,2-dihydroisoquinolin-1-one]
< 10 nM	C=CC(=O)N1CC[C@@H](Nc2n[nH]c3nccc(-c4cccc(NC(=O)c5ccc(C(C)(C)C)cc5)c4C)c23)C1 [Example 9, 4-tert-butyl-N-[2-methyl-3-(3-{[(3R)-1-(prop-2-enoyl)pyrrolidin-3-yl]amino}-1H-pyrazolo[3,4-b]pyridin-4-yl)phenyl]benzamide]

Same assay, conditions: wild-type Btk; read-out: Btk-WT IC50

IC50	SMILES
175 nM	CN(C)C(=O)N1CC[C@@H](Nc2n[nH]c3nccc(-c4ccnc(N5CCn6c(cc7c6CC(C)(C)C7)C5=O)c4CO)c23)C1 [Example 299, (3R)-3-({4-[2-(7,7-dimethyl-1-oxo-1,3,4,6,7,8-hexahydro-2H-cyclopenta[4,5]pyrrolo[1,2-a]pyrazin-2-yl)-3-(hydroxymethyl)pyridin-4-yl]-1H-pyrazolo[3,4-b]pyridin-3-yl}amino)-N,N-dimethylpyrrolidine-1-carboxamide]
31 nM	C[C@@H](NC(=O)c1nc(C(C)(C)C)no1)c1ccc(-c2ccnc3[nH]nc(NC4CCCCC4)c23)cc1 [Example 202, 3-tert-butyl-N-[(1R)-1-{4-[3-(cyclohexylamino)-1H-pyrazolo[3,4-b]pyridin-4-yl]phenyl}ethyl]-1,2,4-oxadiazole-5-carboxamide]
26.3 nM	CC(C)(C)c1nc(C(=O)NCc2ccc(-c3ccnc4[nH]nc(OC5CCNC5)c34)cc2F)no1 (centres unmarked) [Example 269, 5-tert-butyl-N-[(2-fluoro-4-{3-[(pyrrolidin-3-yl)oxy]-1H-pyrazolo[3,4-b]pyridin-4-yl}phenyl)methyl]-1,2,4-oxadiazole-3-carboxamide]
64.6 nM	C[C@H]1CC[C@@H](Nc2n[nH]c3nccc(-c4ccc(CNC(=O)c5noc(C(C)(C)C)n5)cc4CO)c23)CN1C(=O)N(C)C [Example 251, (2S,5R)-5-({4-[4-{[(5-tert-butyl-1,2,4-oxadiazole-3-carbonyl)amino]methyl}-2-(hydroxymethyl)phenyl]-1H-pyrazolo[3,4-b]pyridin-3-yl}amino)-N,N,2-trimethylpiperidine-1-carboxamide]
323 nM	CC1(C)Cc2cc3n(c2C1)CCN(c1nccc(-c2ccnc4[nH]nc(NC5CCNC5)c24)c1CO)C3=O (centres unmarked) [Example 297, 2-[3-(hydroxymethyl)-4-{3-[(pyrrolidin-3-yl)amino]-1H-pyrazolo[3,4-b]pyridin-4-yl}pyridin-2-yl]-7,7-dimethyl-3,4,7,8-tetrahydro-2H-cyclopenta[4,5]pyrrolo[1,2-a]pyrazin-1(6H)-one]
5.64 nM	CN1C[C@@H](Nc2n[nH]c3nccc(-c4ccc(CNC(=O)c5nc(C(C)(C)C)no5)c(F)c4)c23)CC1=O [Example 392, 3-tert-butyl-N-{[2-fluoro-4-(3-{[(3S)-1-methyl-5-oxopyrrolidin-3-yl]amino}-1H-pyrazolo[3,4-b]pyridin-4-yl)phenyl]methyl}-1,2,4-oxadiazole-5-carboxamide]

Source: US20180194762A1 (Pharmacyclics LLC, priority 2017, published 2018)
